Reference: ChEMBL document CHEMBL4834497, “Spirocyclic Thiohydantoin Antagonists of F877L and Wild-Type Androgen Receptor for Castration-Resistant Prostate Cancer” (ACS Med Chem Lett, 2021)

Columns and labels:
[1] = AUC (0 to infinity) in CD-1 mouse at 10 mg/kg, po; assay type: ADME, organism-based; parameters: time infinity, route oral, dose 10 mg/kg; conditions: in vivo
[2] = Metabolic stability in human liver microsomes assessed as half life; assay type: ADME, Microsome
[3] = Volume of distribution in steady state in CD-1 mouse at 2 mg/kg, iv; assay type: ADME, organism-based; conditions: in vivo, read-out: Vdss
[4] = Half life in CD-1 mouse at 2 mg/kg, iv; assay type: ADME, organism-based; conditions: in vivo
[5] = Cmax in CD-1 mouse at 10 mg/kg, po; assay type: ADME, organism-based; parameters: route oral, dose 10 mg/kg; conditions: in vivo
[6] = Oral bioavailability in CD-1 mouse at 10 mg/kg; assay type: ADME, organism-based; conditions: in vivo
[7] = Clearance in CD-1 mouse at 2 mg/kg, iv; assay type: ADME, organism-based; conditions: in vivo
[8] = Metabolic stability in dog liver microsomes assessed as unchanged parent compound remaining at 10 uM incubated for 60 mins in presence of [13C2,15N-glycine]GSH and NADPH by LC-MS/MS analysis; assay type: ADME, Canis lupus familiaris, Microsome; conditions: read-out: Stabilty
[9] = Metabolic stability in dog liver microsomes assessed as unchanged parent compound remaining at 10 uM incubated for 60 mins in presence of [13C2,15N-glycine]GSH by LC-MS/MS analysis; assay type: ADME, Canis lupus familiaris, Microsome; conditions: read-out: Stabilty
Androgen receptor [10] = biological target: Androgen receptor (Homo sapiens, UniProt P10275, F877L); test: Antagonist activity at AR F877L mutant (unknown origin) transfected in human LNCAP cells assessed as inhibition of R1881-stimulated receptor transcriptional activation measured after 20 to 24 hrs by Steady-Glo luciferase assay; assay type: cell-based
Chain of Androgen receptor (Homo sapiens, UniProt P10275, F877L) (P10275 whole entry F877L): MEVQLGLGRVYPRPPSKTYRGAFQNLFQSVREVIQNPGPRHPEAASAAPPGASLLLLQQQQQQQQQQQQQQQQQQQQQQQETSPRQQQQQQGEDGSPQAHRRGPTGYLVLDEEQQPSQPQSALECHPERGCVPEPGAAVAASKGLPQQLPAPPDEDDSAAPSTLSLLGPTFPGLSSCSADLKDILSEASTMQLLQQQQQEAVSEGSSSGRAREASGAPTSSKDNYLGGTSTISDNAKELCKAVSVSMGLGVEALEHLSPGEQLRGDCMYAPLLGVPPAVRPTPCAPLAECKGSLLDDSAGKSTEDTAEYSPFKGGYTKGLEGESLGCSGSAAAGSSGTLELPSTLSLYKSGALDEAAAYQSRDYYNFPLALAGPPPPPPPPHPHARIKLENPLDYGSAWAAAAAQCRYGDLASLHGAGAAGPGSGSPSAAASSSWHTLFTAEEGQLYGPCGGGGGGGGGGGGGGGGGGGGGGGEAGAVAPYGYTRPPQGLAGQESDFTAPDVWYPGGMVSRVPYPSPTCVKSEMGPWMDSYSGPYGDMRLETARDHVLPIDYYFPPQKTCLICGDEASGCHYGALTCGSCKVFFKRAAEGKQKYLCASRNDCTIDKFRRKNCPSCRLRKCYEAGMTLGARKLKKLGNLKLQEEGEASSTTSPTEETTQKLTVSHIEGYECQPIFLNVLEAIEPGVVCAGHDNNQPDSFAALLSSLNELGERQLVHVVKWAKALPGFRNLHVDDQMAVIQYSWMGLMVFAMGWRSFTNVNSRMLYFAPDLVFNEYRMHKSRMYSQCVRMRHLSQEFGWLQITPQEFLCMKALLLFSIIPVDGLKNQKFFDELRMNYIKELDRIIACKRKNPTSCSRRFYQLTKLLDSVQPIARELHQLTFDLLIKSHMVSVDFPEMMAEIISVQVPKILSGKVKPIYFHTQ

Androgen receptor [11] = biological target: T1, Androgen receptor (Homo sapiens, UniProt P10275); assay type: tissue-based, LNCaP
T1 sequence (P10275 whole entry): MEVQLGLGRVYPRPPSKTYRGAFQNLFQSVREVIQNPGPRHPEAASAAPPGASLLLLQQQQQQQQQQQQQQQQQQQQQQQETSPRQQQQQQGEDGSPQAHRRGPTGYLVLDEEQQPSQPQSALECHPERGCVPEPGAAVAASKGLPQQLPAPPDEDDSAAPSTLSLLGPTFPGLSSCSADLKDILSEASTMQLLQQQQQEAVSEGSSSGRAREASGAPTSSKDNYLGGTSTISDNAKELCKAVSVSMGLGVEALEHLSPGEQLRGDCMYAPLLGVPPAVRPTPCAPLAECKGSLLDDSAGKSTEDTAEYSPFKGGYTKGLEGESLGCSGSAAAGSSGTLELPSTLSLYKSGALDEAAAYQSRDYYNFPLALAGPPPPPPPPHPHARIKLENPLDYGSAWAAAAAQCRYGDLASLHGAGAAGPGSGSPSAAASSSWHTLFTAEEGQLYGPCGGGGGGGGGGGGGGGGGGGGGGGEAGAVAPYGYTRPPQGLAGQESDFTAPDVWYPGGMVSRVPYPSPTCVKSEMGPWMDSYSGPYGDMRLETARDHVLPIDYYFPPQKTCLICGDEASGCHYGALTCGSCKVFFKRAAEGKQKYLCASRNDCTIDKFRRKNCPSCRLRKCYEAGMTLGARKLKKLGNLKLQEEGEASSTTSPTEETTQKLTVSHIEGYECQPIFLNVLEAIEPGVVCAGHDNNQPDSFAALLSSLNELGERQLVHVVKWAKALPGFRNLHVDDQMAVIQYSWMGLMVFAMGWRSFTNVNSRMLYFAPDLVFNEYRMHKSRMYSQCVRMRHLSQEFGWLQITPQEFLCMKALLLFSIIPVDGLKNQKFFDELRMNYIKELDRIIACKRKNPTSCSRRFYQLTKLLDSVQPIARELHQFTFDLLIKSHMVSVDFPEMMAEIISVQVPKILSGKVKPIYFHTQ
Description: Antagonist activity at wild type androgen receptor in castration-resistant human LNCaP cells assessed as inhibition of R1881-stimulated receptor transcriptional activation measured after 20 to 24 hrs by Steady-Glo luciferase assay

| SMILES | AUC(0-inf) [1] | half-life [2] | Vd [3] | half-life [4] | Cmax [5] | bioavailability [6] | clearance [7] | remaining at 1 h, 10 µM [8] | remaining at 1 h, 10 µM [9] | IC50 (Androgen receptor [10]) | IC50 (Androgen receptor [11]) |
| --- | --- | --- | --- | --- | --- | --- | --- | --- | --- | --- | --- |
| CNC(=O)c1cc2c(cc1F)CC1(C2)C(=O)N(c2ccc(C#N)c(C(F)(F)F)c2)C(=S)N1C(C)C (stereo not given) | 107000 ng·h/mL | > 3 h | 1.7 L/kg | 14.8 h | 8.85 µM | 102% | 1.6 mL/min/kg |  |  |  |  |
| CN1C(=S)N(c2cnc(C#N)c(C(F)(F)F)c2)C(=O)C12Cc1ccc(OC3CCNCC3)cc1C2 (stereo not given) | 15200 ng·h/mL | > 3 h | 16.3 L/kg | 16.7 h | 0.92 µM | 97% | 11.5 mL/min/kg | 98.4% | 100% |  |  |
| CNC(=O)c1cc2c(cc1F)CC1(C2)C(=O)N(c2cnc(C#N)c(C(F)(F)F)c2)C(=S)N1C(C)C (stereo not given) | 27000 ng·h/mL | > 3 h | 4.8 L/kg | 19.5 h | 3.69 µM | 61% | 3.4 mL/min/kg |  |  |  |  |
| CNC(=O)c1ccc2c(c1)CC1(C2)C(=O)N(c2ccc(C#N)c(C(F)(F)F)c2)C(=O)N1C (stereo not given) |  |  |  |  |  |  |  |  |  | 1.66 µM | > 30 µM |
| CNC(=O)c1cc2c(cc1F)C[C@@]1(C2)C(=O)N(c2ccc(C#N)c(C(F)(F)F)c2)C(=S)N1C(C)C | 50400 ng·h/mL | > 3 h | 1.8 L/kg | 5.2 h | 5.81 µM | 91% | 3 mL/min/kg |  |  |  |  |
| CN1C(=S)N(c2cnc(C#N)c(C(F)(F)F)c2)C(=O)C12Cc1ccc(O)cc1C2 (stereo not given) |  |  |  |  |  |  |  | 52.3% | 100% |  |  |
| N#Cc1ncc(N2C(=O)C3(CCC3)N(c3ccc(O)cc3)C2=S)cc1C(F)(F)F |  |  |  |  |  |  |  | 78.7% |  |  |  |
| CNC(=O)c1cc2c(cc1F)C[C@]1(C2)C(=O)N(c2ccc(C#N)c(C(F)(F)F)c2)C(=S)N1C(C)C | 104000 ng·h/mL | > 3 h | 1.7 L/kg | 10.3 h | 5.86 µM | 63% | 0.9 mL/min/kg |  |  |  |  |
| CNC(=O)c1ccc2c(c1)CC1(C2)NC(=S)N(c2cnc(C#N)c(C(F)(F)F)c2)C1=O (stereo not given) |  |  |  |  |  |  |  |  |  | > 15 µM | > 15 µM |
| CNC(=O)c1cc2c(cc1F)C[C@@]1(C2)C(=O)N(c2cnc(C#N)c(C(F)(F)F)c2)C(=S)N1C(C)C | 39100 ng·h/mL | 1.97 h | 2.3 L/kg | 6.9 h | 3.7 µM | 92% | 4 mL/min/kg |  |  |  |  |
| CNC(=O)c1ccc2c(c1)CC1(C2)NC(=S)N(c2ccc(C#N)c(C(F)(F)F)c2)C1=O (stereo not given) |  |  |  |  |  |  |  |  |  | 5.01 µM | 11.2 µM |
| CNC(=O)c1cc2c(cc1F)C[C@]1(C2)C(=O)N(c2cnc(C#N)c(C(F)(F)F)c2)C(=S)N1C(C)C | 99400 ng·h/mL | 2.25 h | 1.9 L/kg | 15.8 h | 6.1 µM | 80% | 1.3 mL/min/kg |  |  |  |  |
